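Where inhibition never reached the appropriate level, the endpoint shown equals the highest concentration tested. Otherwise, values were interpolated linearly from a five-concentration, 48-hour dose response in 96-well plates. At the GI50, growth is halved.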 Calls of active or inactive are those of the source. Cut-off read from the data, not from the text of the source: active = GI50 up to about 1.1 µM and inactive = higher.
How the values were obtained:
Assay in all cases: growth of human tumour cells (NCI), 48 h
LXFL 529 = tested on: LXFL 529
NCI-H226 = tested on: NCI-H226
HCC 2998 = tested on: HCC 2998
A498 = tested on: A498
UO-31 = tested on: UO-31
EKVX = tested on: EKVX
SNB-19 = tested on: SNB-19
SNB-78 = tested on: SNB-78
COLO 205 = tested on: COLO 205
786-0 = tested on: 786-0
HL-60 = tested on: HL-60
OVCAR-5 = tested on: OVCAR-5
U-251 = tested on: U-251
SW-620 = tested on: SW-620
MOLT-4 = tested on: MOLT-4
HT-29 = tested on: HT-29
HCT-15 = tested on: HCT-15
SF-268 = tested on: SF-268
SNB-75 = tested on: SNB-75
M14 = tested on: M14
KM12 = tested on: KM12
NCI-H522 = tested on: NCI-H522
SR = tested on: SR
DMS-114 = tested on: DMS-114
RXF 393 = tested on: RXF 393
HOP-62 = tested on: HOP-62
UACC-62 = tested on: UACC-62
TK-10 = tested on: TK-10
HOP-92 = tested on: HOP-92
IGROV-1 = tested on: IGROV-1
OVCAR-3 = tested on: OVCAR-3
SK-MEL-28 = tested on: SK-MEL-28
LOX IMVI = tested on: LOX IMVI
RXF 631 = tested on: RXF 631
UACC-257 = tested on: UACC-257
HOP-18 = tested on: HOP-18
M19-MEL = tested on: M19-MEL
SF-295 = tested on: SF-295
Malme-3M = tested on: Malme-3M
OVCAR-8 = tested on: OVCAR-8
HCT-116 = tested on: HCT-116
RPMI-8226 = tested on: RPMI-8226
A549 = tested on: A549
SF-539 = tested on: SF-539
XF498 = tested on: XF498
OVCAR-4 = tested on: OVCAR-4
DLD-1 = tested on: DLD-1
DMS-273 = tested on: DMS-273
SK-MEL-5 = tested on: SK-MEL-5
ACHN = tested on: ACHN
KM-20L2 = tested on: KM-20L2
K562 = tested on: K562
CAKI-1 = tested on: CAKI-1
SK-MEL-2 = tested on: SK-MEL-2
NCI-H23 = tested on: NCI-H23
SN12C = tested on: SN12C

With `COc1ccc(Cc2c3cc(OC)c(OC)cc3cc[n+]2C)cc1` as the compound, how does the GI50 (LXFL 529) read?
Its GI50 is 3.18 µM (inactive).

And the GI50 (NCI-H226)?
The GI50 was 33.1 µM (inactive).

What about the GI50 (HCC 2998) of the same compound?
Its GI50 is > 25.2 µM (inactive).

And the GI50 (A498)?
Its GI50 is > 100 µM (inactive).

And the GI50 (UO-31)?
Its GI50 is > 34 µM (inactive).

What about the GI50 (EKVX) of the same compound?
Its GI50 is > 39 µM (inactive).

And the GI50 (SNB-19)?
Its GI50 is 6.81 µM (inactive).

And the GI50 (SNB-78)?
Its GI50 is 58.1 µM (inactive).

What about the GI50 (COLO 205) of the same compound?
Its GI50 is 5.21 µM (inactive).

And the GI50 (786-0)?
Its GI50 is > 23.8 µM (inactive).

And the GI50 (HL-60)?
The GI50 was 1.21 µM (inactive).

What about the GI50 (OVCAR-5) of the same compound?
Its GI50 is > 100 µM (inactive).

And the GI50 (U-251)?
The GI50 was 13.5 µM (inactive).

What about the GI50 (SW-620) of the same compound?
Its GI50 is > 100 µM (inactive).

And the GI50 (MOLT-4)?
Its GI50 is > 100 µM (inactive).

What about the GI50 (HT-29) of the same compound?
Its GI50 is 13.4 µM (inactive).

What about the GI50 (HCT-15) of the same compound?
Its GI50 is over 31.3 µM.

And the GI50 (SF-268)?
Its GI50 is 4.7 µM (inactive).

And the GI50 (SNB-75)?
The GI50 was 9.25 µM (inactive).

And the GI50 (M14)?
The GI50 was > 21.7 µM (inactive).

What about the GI50 (KM12) of the same compound?
Its GI50 is 9.29 µM (inactive).

What about the GI50 (NCI-H522) of the same compound?
Its GI50 is 19.9 µM (inactive).

What about the GI50 (SR) of the same compound?
Its GI50 is 2.2 µM (inactive).

And the GI50 (DMS-114)?
The GI50 was 2.82 µM (inactive).

And the GI50 (RXF 393)?
The GI50 was > 25.6 µM (inactive).

And the GI50 (HOP-62)?
Its GI50 is > 20.8 µM (inactive).

And the GI50 (UACC-62)?
Its GI50 is 18.9 µM (inactive).

What about the GI50 (TK-10) of the same compound?
Its GI50 is > 52.5 µM (inactive).

And the GI50 (HOP-92)?
Its GI50 is 23.1 µM (inactive).

What about the GI50 (IGROV-1) of the same compound?
The GI50 was 38.7 µM (inactive).

And the GI50 (OVCAR-3)?
The GI50 was 7.28 µM (inactive).

What about the GI50 (SK-MEL-28) of the same compound?
The GI50 was 32.6 µM (inactive).

And the GI50 (LOX IMVI)?
The GI50 was > 14.2 µM (inactive).

And the GI50 (RXF 631)?
The GI50 was > 10.3 µM (inactive).

And the GI50 (UACC-257)?
The GI50 was 20.4 µM (inactive).

And the GI50 (HOP-18)?
The GI50 was > 27.9 µM (inactive).

What about the GI50 (M19-MEL) of the same compound?
The GI50 was 12.6 µM (inactive).

And the GI50 (SF-295)?
The GI50 was 5.73 µM (inactive).

What about the GI50 (Malme-3M) of the same compound?
Its GI50 is 27.2 µM (inactive).

And the GI50 (OVCAR-8)?
The GI50 was 6.85 µM (inactive).

And the GI50 (HCT-116)?
The GI50 was 15 µM (inactive).

And the GI50 (RPMI-8226)?
Its GI50 is 24.5 µM (inactive).

And the GI50 (A549)?
Its GI50 is 9.35 µM (inactive).

And the GI50 (SF-539)?
The GI50 was 18.7 µM (inactive).

What about the GI50 (XF498) of the same compound?
Its GI50 is 4.99 µM (inactive).

And the GI50 (OVCAR-4)?
Its GI50 is 19.8 µM (inactive).

And the GI50 (DLD-1)?
Its GI50 is > 18 µM (inactive).

What about the GI50 (DMS-273) of the same compound?
Its GI50 is 2.22 µM (inactive).

And the GI50 (SK-MEL-5)?
The GI50 was 21.2 µM (inactive).

What about the GI50 (ACHN) of the same compound?
The GI50 was > 29.2 µM (inactive).

What about the GI50 (KM-20L2) of the same compound?
Its GI50 is 10.3 µM (inactive).

What about the GI50 (K562) of the same compound?
Its GI50 is 34.4 µM (inactive).

And the GI50 (CAKI-1)?
Its GI50 is > 48.3 µM (inactive).

And the GI50 (SK-MEL-2)?
Its GI50 is > 29.1 µM (inactive).

What about the GI50 (NCI-H23) of the same compound?
The GI50 was 8.3 µM (inactive).

And the GI50 (SN12C)?
Its GI50 is 4.93 µM (inactive).

— ChEMBL document CHEMBL1201862, “PubChem BioAssay data set” (2004)
